Reference: ChEMBL document CHEMBL1158406, “Design of novel quinazoline derivatives and related analogues as potent and selective ALK5 inhibitors” (Bioorg Med Chem Lett, 2009)

Assays:
TGF-beta receptor type-1 [1] = molecular target: T1, TGF-beta receptor type-1 (Homo sapiens, UniProt P36897); experiment: Inhibition of human ALK5 kinase expressed in Sf9 cells
T1 sequence (P36897 whole entry): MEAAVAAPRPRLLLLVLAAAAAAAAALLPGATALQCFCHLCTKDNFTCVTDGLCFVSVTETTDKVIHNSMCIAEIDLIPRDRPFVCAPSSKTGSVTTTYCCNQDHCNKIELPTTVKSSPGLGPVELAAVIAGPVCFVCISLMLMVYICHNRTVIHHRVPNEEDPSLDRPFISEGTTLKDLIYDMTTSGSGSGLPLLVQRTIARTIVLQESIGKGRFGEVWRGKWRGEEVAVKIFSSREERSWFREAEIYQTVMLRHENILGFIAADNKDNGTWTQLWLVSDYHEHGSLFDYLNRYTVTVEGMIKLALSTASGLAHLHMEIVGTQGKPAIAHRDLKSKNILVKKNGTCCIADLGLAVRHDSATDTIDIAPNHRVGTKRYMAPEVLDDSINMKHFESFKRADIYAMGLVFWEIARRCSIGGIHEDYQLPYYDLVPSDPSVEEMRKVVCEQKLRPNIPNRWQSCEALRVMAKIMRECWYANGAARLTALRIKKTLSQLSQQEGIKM

[2] = molecular target: Mitogen-activated protein kinase 14 (Homo sapiens, UniProt Q16539); experiment: Inhibition of GST-fused p38alpha
TGF-beta receptor type-1 [3] = molecular target: T1, TGF-beta receptor type-1; experiment: Inhibition of TGF-beta-induced ALK5 in human HepG2 cells by luciferase assay; format: cell-based
[4] = Bioavailability in rat at 5 mg/kg, po; format: ADME, organism-based; details: in vivo
[5] = AUC in rat at 5 mg/kg, po; format: ADME, organism-based; set-up: dose 5 mg/kg, route oral; details: plasma
Rattus norvegicus [6] = experiment: Inhibition of dimethylnitreosamine-induced collagen IA1 mRNA expression in rat liver at 5 mg/kg, po bid; format: functional
Rattus norvegicus [7] = experiment: Inhibition of dimethylnitreosamine-induced collagen IA1 mRNA expression in rat liver at 10 mg/kg, po bid; format: functional

Sequence of Mitogen-activated protein kinase 14 (Q16539 whole entry, the tested form may be a part): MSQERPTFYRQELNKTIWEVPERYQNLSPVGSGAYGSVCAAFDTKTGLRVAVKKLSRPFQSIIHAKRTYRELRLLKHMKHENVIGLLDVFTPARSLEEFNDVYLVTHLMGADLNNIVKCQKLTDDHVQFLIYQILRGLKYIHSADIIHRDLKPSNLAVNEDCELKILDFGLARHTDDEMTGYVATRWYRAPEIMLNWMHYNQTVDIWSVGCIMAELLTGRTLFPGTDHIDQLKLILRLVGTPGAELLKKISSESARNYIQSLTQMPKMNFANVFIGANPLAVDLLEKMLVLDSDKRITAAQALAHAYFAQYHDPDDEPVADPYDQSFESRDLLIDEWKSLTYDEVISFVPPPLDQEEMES

Row | Structure (SMILES) | IC50 (TGF-beta receptor type-1 [1]) [nM] | IC50 [2] [nM] | IC50 (TGF-beta receptor type-1 [3]) [nM] | bioavailability [4] [%] | AUC [5] [ng·h/mL] | inhibition in vivo at 5 mg/kg (Rattus norvegicus [6]) [%] | inhibition in vivo at 10 mg/kg (Rattus norvegicus [7]) [%]
1 | Cc1cccc(-c2nc(Nc3ccc4[nH]ncc4c3)c3ccccc3n2)n1 | 25 | > 10000 | 90 | – | – | – | –
2 | Cc1csc(-c2nc(Nc3ccncc3)c3ccccc3n2)n1 | 20 | > 15000 | 342 | – | – | – | –
3 | Cc1cccc(-c2nc(Nc3ccc4c(cnn4C)c3)c3ccccc3n2)n1 | 588 | > 10000 | 794 | – | – | – | –
4 | Cc1cccc(-c2nc(Nc3ccc4ncsc4c3)c3ccccc3n2)n1 | 646 | > 10000 | > 5000 | – | – | – | –
5 | Cc1cccc(-c2nc(C)cc(Nc3ccncc3)n2)n1 | 93 | – | 745 | – | – | – | –
6 | Cc1cccc(-c2nc(Nc3ccncc3)c3sccc3n2)n1 | 22 | – | 60 | – | – | – | –
7 | Cc1cc(Nc2nc(-c3cccc(C)n3)nc3ccccc23)ccn1 | 199 | > 10000 | 1020 | – | – | – | –
8 | Cc1cccc(-c2nc(Nc3ccc4[nH]nnc4c3)c3ccccc3n2)n1 | 3720 | > 10000 | > 5000 | – | – | – | –
9 | Cc1cccc(-c2nc(Nc3cccc(C(N)=O)c3)c3ccccc3n2)n1 | 263 | > 10000 | 545 | – | – | – | –
10 | Cc1cccc(-c2nc(Nc3ccncc3)c3c(C)csc3n2)n1 | 16 | – | 318 | – | – | – | –
11 | c1ccc(-c2nc(Nc3ccncc3)c3ccccc3n2)cc1 | 194 | 1270 | 2470 | – | – | – | –
12 | Cc1cccc(-c2nc(Nc3ccncc3)c3ccccc3n2)n1 | 25 | 6720 | 95 | 40 | 524 | 66 | 73
13 | Clc1cccc(-c2nc(Nc3ccncc3)c3ccccc3n2)c1 | 49 | > 15000 | 1610 | – | – | – | –
14 | Cc1cccc(-c2nc(Nc3ccncn3)c3ccccc3n2)n1 | 40 | > 10000 | 60 | – | – | – | –
